Converted amounts (≈) assume the structure as drawn. “And” between values parts separate entries of the source, which are not always exact repeats. Equal values may be shown once.
Assays:
[1] = target: 3',5'-cyclic-AMP phosphodiesterase 4D (Homo sapiens, UniProt Q08499)
Description: Inhibition of full length human PDE4D2 expressed in Escherichia coli BL21 by liquid scintillation counting

[2] = Solubility in heavy water; format: physicochemical
[3] = target: cGMP-dependent 3',5'-cyclic phosphodiesterase (Homo sapiens, UniProt O00408); test: Inhibition of human cloned PDE2A3 expressed in Escherichia coli BL21 by liquid scintillation counting
Chain of cGMP-dependent 3',5'-cyclic phosphodiesterase (O00408 whole entry, the tested form may be a part): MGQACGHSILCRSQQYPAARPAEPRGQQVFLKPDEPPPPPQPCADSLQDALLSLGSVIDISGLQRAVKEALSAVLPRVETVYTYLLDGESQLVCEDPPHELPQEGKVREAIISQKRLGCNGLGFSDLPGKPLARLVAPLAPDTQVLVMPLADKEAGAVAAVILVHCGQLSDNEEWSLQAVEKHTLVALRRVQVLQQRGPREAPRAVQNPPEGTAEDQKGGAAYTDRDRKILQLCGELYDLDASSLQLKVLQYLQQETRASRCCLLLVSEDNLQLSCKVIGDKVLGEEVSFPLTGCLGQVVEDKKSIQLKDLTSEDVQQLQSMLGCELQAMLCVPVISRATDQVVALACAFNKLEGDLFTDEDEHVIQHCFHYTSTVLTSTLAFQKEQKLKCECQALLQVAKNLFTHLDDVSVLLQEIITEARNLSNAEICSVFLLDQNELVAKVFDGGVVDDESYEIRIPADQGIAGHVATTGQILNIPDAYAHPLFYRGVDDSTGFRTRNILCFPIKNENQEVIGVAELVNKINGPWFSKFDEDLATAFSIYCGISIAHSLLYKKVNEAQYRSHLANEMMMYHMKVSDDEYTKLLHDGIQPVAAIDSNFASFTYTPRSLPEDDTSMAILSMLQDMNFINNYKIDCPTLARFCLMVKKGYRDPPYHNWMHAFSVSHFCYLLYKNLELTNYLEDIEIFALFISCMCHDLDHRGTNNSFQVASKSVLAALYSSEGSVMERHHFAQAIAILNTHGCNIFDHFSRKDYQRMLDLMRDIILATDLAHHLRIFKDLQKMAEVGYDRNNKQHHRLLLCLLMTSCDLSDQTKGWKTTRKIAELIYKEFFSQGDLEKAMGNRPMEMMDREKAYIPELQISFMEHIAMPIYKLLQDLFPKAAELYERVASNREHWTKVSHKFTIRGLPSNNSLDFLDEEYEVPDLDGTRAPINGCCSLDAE

[4] = target: High affinity 3',5'-cyclic-AMP phosphodiesterase 7A (Homo sapiens, UniProt Q13946); test: Inhibition of human cloned PDE7A1 catalytic domain expressed in Escherichia coli BL21 by liquid scintillation counting
Chain of High affinity 3',5'-cyclic-AMP phosphodiesterase 7A (Q13946 whole entry, the tested form may be a part): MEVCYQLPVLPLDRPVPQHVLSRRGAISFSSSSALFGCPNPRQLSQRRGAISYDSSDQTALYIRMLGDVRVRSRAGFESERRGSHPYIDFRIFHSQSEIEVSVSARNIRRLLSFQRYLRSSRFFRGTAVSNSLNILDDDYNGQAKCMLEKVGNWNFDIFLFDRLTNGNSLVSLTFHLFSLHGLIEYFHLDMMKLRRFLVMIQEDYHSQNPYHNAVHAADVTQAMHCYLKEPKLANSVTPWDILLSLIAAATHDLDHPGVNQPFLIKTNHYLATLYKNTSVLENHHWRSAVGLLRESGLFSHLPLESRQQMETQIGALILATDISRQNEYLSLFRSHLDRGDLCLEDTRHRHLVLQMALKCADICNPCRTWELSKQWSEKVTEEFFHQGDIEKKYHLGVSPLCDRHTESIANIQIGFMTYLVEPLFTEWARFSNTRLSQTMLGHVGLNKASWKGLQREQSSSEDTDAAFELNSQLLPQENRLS

[5] = target: cGMP-specific 3',5'-cyclic phosphodiesterase (Homo sapiens, UniProt O76074); test: Inhibition of human cloned PDE5A1 expressed in Escherichia coli BL21 by liquid scintillation counting
[6] = target: High affinity cGMP-specific 3',5'-cyclic phosphodiesterase 9A (Homo sapiens, UniProt O76083); test: Inhibition of human cloned PDE9A2 expressed in Escherichia coli BL21 by liquid scintillation counting
Chain of High affinity cGMP-specific 3',5'-cyclic phosphodiesterase 9A (O76083 whole entry): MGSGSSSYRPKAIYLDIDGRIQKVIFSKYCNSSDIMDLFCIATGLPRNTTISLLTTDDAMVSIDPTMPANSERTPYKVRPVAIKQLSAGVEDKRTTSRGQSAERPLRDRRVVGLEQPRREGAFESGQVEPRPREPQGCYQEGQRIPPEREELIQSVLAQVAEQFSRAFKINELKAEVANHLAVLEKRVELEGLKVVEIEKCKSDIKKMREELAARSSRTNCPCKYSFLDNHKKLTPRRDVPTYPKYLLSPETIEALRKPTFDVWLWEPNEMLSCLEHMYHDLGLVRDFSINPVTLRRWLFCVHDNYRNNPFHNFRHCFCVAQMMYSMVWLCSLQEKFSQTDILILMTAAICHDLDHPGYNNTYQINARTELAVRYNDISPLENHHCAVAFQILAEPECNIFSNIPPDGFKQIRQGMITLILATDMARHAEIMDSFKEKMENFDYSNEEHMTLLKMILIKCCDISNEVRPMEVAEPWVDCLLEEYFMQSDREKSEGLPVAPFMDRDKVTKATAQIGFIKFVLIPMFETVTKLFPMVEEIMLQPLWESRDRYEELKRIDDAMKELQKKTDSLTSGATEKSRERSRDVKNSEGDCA

PBMC = test: Inhibition of LPS-induced TNFalpha production in human PBMC; format: functional, cell-based

Chain of 3',5'-cyclic-AMP phosphodiesterase 4D (Q08499 whole entry): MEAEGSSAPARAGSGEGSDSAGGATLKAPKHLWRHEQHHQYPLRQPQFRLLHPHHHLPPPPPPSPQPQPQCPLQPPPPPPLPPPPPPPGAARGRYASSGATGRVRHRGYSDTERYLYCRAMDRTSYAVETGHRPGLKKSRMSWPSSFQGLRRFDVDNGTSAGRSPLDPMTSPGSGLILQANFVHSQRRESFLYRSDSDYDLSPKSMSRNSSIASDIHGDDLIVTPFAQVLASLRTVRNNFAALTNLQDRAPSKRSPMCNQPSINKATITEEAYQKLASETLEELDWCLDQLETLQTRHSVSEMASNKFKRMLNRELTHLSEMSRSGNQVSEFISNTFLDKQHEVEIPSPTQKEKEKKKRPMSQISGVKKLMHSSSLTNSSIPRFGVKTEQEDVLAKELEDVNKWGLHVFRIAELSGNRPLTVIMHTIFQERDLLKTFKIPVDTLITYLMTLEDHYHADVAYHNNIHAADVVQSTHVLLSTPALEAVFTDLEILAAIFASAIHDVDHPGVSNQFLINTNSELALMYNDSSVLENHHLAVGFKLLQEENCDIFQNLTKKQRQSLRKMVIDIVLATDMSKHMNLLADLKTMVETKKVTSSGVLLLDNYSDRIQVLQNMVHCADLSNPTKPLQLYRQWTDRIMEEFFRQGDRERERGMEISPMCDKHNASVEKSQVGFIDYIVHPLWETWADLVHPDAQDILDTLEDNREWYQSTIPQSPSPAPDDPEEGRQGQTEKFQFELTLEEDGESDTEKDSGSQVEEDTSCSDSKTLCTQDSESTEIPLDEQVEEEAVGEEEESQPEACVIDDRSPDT

| Structure (SMILES) | IC50 [1] | other results |
| --- | --- | --- |
| O=C(CCC1CCCCC1)c1ccc(OC(F)F)c(OC2CCOC2)c1 (stereo not drawn) | 1.1 µM |  |
| O=C(CCCc1ccccc1)c1ccc(OC(F)F)c(OC2CCOC2)c1 (stereo not drawn) | 0.636 µM |  |
| CCCCC(=O)c1ccc(OC)c(OC2CCNCC2)c1 | 102 µM | solubility [2]: 800 µM (≈ 233 µg/mL) |
| COc1ccc(C(=O)CC2CCCCC2)cc1OC1CCOC1 (stereo not drawn) | 2.6 µM |  |
| CCCC(=O)c1ccc(OC(F)F)c(OC2CCOCC2)c1 | 0.35 µM |  |
| CCCC(O)(c1ccc(Oc2ccccn2)c(OC)c1)c1cnc2ccccc2c1 (stereo not drawn) | 6 µM | IC50 [3]: > 50 µM; IC50 [4]: 17 µM; IC50 [5]: 40 µM; IC50 [6]: > 50 µM |
| COc1cc(C(CC(C)=O)c2cnc3ccccc3c2)ccc1Oc1ccccn1 (stereo not drawn) | 6 µM | IC50 [3]: > 50 µM; IC50 [4]: > 50 µM; IC50 [5]: > 50 µM; IC50 [6]: > 50 µM |
| COc1ccc(C(=O)Nc2ccccc2F)cc1OC1CCCC1 | 10.7 µM |  |
| COc1ccc(C(=O)Nc2c(Cl)cccc2Cl)cc1OC1CCCC1 | 0.0282 µM |  |
| CC(C)CC(=O)c1ccc(OC(F)F)c(OC2CCOC2)c1 (stereo not drawn) |  | IC50 [3]: > 50 µM; IC50 [4]: > 50 µM; IC50 [5]: > 50 µM; IC50 (PBMC): 0.04 µM; IC50 [6]: > 50 µM |
| CCCCC(O)c1ccc(OC)c(OC2CCOC2)c1 (stereo not drawn) | 10 µM |  |
| COc1ccc(C(=O)CCc2ccccc2)cc1OC1CCOC1 (stereo not drawn) | 2.6 µM |  |
| CCCC(=O)c1ccc(OC(F)F)c(Oc2ccccn2)c1 | 40 µM |  |
| COc1ccc(C(=O)c2cnc3ccccc3c2)cc1OC1CCOCC1 | 45 µM |  |
| CC(C)CC(=O)c1ccc(OC(F)F)c(OC2CCCC2)c1 | 0.028 µM | IC50 (PBMC): 0.1 µM |
| CCCCC(=O)c1ccc(OC(F)F)c(OC2CCN(C(=O)OC(C)(C)C)CC2)c1 | 2.2 µM |  |
| CCCC(=O)c1ccc(OC2CCN(C(=O)OC(C)(C)C)CC2)c(OC)c1 | 29 µM |  |
| COc1ccc(C(=O)CCC2CCCCC2)cc1OC1CCOC1 (stereo not drawn) | 1.9 µM |  |
| CCCOc1cc(C(=O)Nc2c(F)cccc2F)ccc1OC | 1.58 µM |  |
| COc1ccc(C(=O)Nc2ccccc2C(F)(F)F)cc1OC1CCCC1 | 3.09 µM |  |
| O=C(CC1CCCCC1)c1ccc(OC(F)F)c(OC2CCOC2)c1 (stereo not drawn) | 0.667 µM |  |
| O=C(CCc1ccccc1)c1ccc(OC(F)F)c(OC2CCOC2)c1 (stereo not drawn) | 0.18 µM |  |
| COc1ccc(C(=O)CC(C)C)cc1OC1CCOC1 (stereo not drawn) | 0.19 µM and 0.178 µM |  |
| O=C(CCCc1ccccc1)c1ccc(OC(F)F)c(OC(F)F)c1 | 44 µM |  |
| COc1ccc(C(=O)Nc2ccccc2Cl)cc1OC | 0.646 µM |  |

| Structure (SMILES) | IC50 [1] | other results |
| --- | --- | --- |
| CCCC(=O)c1ccc(OC2CCOC2)c(OC)c1 (stereo not drawn) | 24 µM |  |
| CCCCC(c1cccnc1)c1ccc(Oc2ccccn2)c(OC)c1 (stereo not drawn) | 10 µM |  |
| CC(C)(C)C(=O)c1ccc(OC(F)F)c(OC2CCOC2)c1 (stereo not drawn) | 0.41 µM |  |
| CCCC(O)c1ccc(OC2CCOCC2)c(OC)c1 (stereo not drawn) | > 100 µM and 1510 µM |  |
| CCCC(O)c1ccc(OC2CCOC2)c(OC)c1 (stereo not drawn) | > 100 µM and 525 µM |  |
| CCCCC(O)c1ccc(OC2CCOCC2)c(OC)c1 (stereo not drawn) | > 100 µM and 537 µM |  |
| COc1cc(C(CC(C)=O)c2cccnc2)ccc1O (stereo not drawn) | 80 µM |  |
| CCCCC(=O)c1ccc(OC)c(OC2CCOC2)c1 (stereo not drawn) | 0.22 µM |  |
| COc1ccc(C(=O)CCC(C)C)cc1OC1CCOC1 (stereo not drawn) | 0.38 µM |  |
| CCCC(=O)c1ccc(OC2CCOCC2)c(OC)c1 | 60 µM |  |
| COc1ccc(C(=O)CCCc2ccccc2)cc1OC1CCOC1 (stereo not drawn) | 2.29 µM |  |
| CCCCC(O)c1ccc(OC2CCOC2)c(OC)c1 (stereo not drawn) | > 100 µM and 398 µM |  |
| CCCC(=O)c1ccc(OC)c(OC2CCOCC2)c1 | 3.5 µM | IC50 [3]: > 50 µM; IC50 [4]: > 50 µM; IC50 [5]: > 50 µM; IC50 [6]: > 50 µM |
| CCCCC(=O)c1ccc(OC)c(OC2CCOCC2)c1 | 0.72 µM |  |
| CCCCC(=O)c1ccc(OC2CCOC2)c(OC)c1 (stereo not drawn) | 100 µM |  |
| COc1ccc(C(=O)Nc2c(F)cccc2F)cc1OC1CCCCC1 | 0.398 µM |  |
| CCCCC(=O)c1ccc(OC2CCOCC2)c(OC)c1 | 71 µM |  |
| CCCC(=O)c1ccc(OC)c(OC2CCOC2)c1 (stereo not drawn) | 0.43 µM |  |
| O=C(CCc1ccccc1)c1ccc(OC(F)F)c(OC(F)F)c1 | 0.82 µM |  |
| CCCCC(=O)c1ccc(OC(F)F)c(OC2CCOC2)c1 (stereo not drawn) | 0.061 µM |  |
| CCCCC(=O)c1ccc(OC2CCN(C(=O)OC(C)(C)C)CC2)c(OC)c1 | 93 µM |  |
| COc1ccc(C(=S)Nc2c(Cl)cccc2Cl)cc1OC1CCCC1 | 0.2 µM |  |
| COc1ccc(C(=O)Nc2c(F)cccc2F)cc1O | 37.2 µM |  |
| O=C(CC1CCCCC1)c1ccc(OC(F)F)c(OC(F)F)c1 | 5.2 µM |  |
| COc1ccc(C(=O)Nc2c(F)cccc2F)cc1OC1CCCC1 | 0.0708 µM |  |

Source: ChEMBL document CHEMBL1151716 (J Med Chem, 2008)
